From article PMC6821791, “Phase I Trial of Pyragrel, a Novel Thromboxane Synthetase Inhibitor, to Evaluate the Safety, Tolerability, and Pharmacokinetics in Healthy Volunteers” (Frontiers in Pharmacology, 2019)

Assays:
Assay type in all cases: in vivo, human
[1] = Part I single-ascending-dose plasma pharmacokinetics (HPLC-MS/MS, noncompartmental); settings: for AUCINF / AUClast / Cl / Cmax / Tmax / Vz / t1/2: Part I, mean ± SD
Protocol: (§1) Pyragrel administration regimens are as follows: In the single-escalating-dose study (Part I), a total of 52 subjects are enrolled to receive one of three treatments (pyragrel, ozagrel, or placebo, diluted in 500 Ml normal saline) as a 3-h i.v. infusion. Six dose levels of pyragrel (30, 60,120, 180, 240, 300 mg) were intravenously infused to healthy subjects. Of the 12 subjects each at the first three dose groups (30, 60, and 120 mg), 8 received pyragrel, 2 received ozagrel (80 mg), and 2 received placebo. Eight subjects were assigned as 4/2/2 for pyragrel, ozagrel, and placebo at the 180 mg level. Only four subjects were enrolled at the 240- and 300-mg group each; all received pyragrel. […] In the saline-volume-changed study (Part II), the safety and pharmacokinetics of pyragrel were assessed by decreasing the volume of dilution saline. Four subjects received a single 3 h infusion of pyragrel 240 mg diluted in 250 ml saline instead of the 500 ml used in Part I. Blood samples were collected at multiple time points before and after the initiation of the infusion in Part I and Part II; 15 blood samples were predetermined as follows: before drug administration (time 0), 0.5, 1, 2, 3 (4 samples collected during infusion), 3.25, 3.5, 4, 5, 7, 9, 11, 15, 24, and 48 h (10 samples collected post infusion) after the initiation of the infusion. In the multiple-dose study (Part III), 12 subjects received a single 3 h infusion of 180 mg pyragrel (diluted in 250 ml saline) on Day 1 and Day 6 and twice 3 h infusion of 180 mg pyragrel from Day 2 to 5; 14 blood samples were collected on Day 1 and Day 6 before drug administration (0 h), 0.5, 1, 2, 3, 3.25, 3.5, 4, 5, 7, 9, 11, 15, 24 h after the initiation of the infusion; moreover, 5 ml cubital vein blood was collected each time right before pyragrel infusion on Day 2 to Day 5. In the 3×3 crossover study (Part IV), 12 subjects were randomized to receive each of the three dosing groups (60, 120, or 240 mg) of pyragrel (diluted with 250 ml saline, 3 h infusion) per period, with a 7-day washout period between doses. Sixteen blood samples were collected as follows: before drug administration (0 h), 0.17, 0.35, 0.5, 1, 2, 3, 3.25, 3.5, 4, 5, 7, 9, 11, 15, and 24 h after the initiation of the infusion at each period. In the prolonged infusion study (Part V), four subjects received continuous 24 h infusion of pyragrel 360 mg (diluted in 600 ml saline); 19 blood samples were collected as follows: before drug administration (0 h), 0.25, 0.5, 1, 2, 4, 8, 12, 16, 20 (nine samples collected during administration), 24.25, 24.5, 25, 26, 28, 30, 32, 36, and 48 h after the initiation of the infusion (details shown in Figure 1 ). In all five cohorts, 5 ml of cubital vein blood was collected with a sodium heparin anticoagulant tube and centrifuged at 3000 r·min^-1. Each plasma sample was divided into two aliquots and stored at −20°C until further bioanalysis. […] Briefly, 10 µl of the extract drug from […] was injected onto a Zorbax EcLipse XDB C18 column (2.1 mm × 150 mm, 5 μm) (Agilent, USA) using isocratic elution with a mobile phase composed of methanol, water, and formic acid (65:35:0.1, v/v/v). Determination of the analytes was achieved by tandem-mass spectrometry with positive electrospray ionization.
(§2) Pharmacokinetic parameters were calculated using the noncompartmental model (NCA module), WinNonlin 6.1 (Pharsight Corporation, Mountain View, CA, USA). Statistical analysis was performed with SPSS 18. The actual dosing and sampling times were utilized in the analysis. Pharmacokinetic parameters were summarized by dose regimens using descriptive statistics, including n, mean, and the coefficient of variation (CV). For Tmax, only n, min, median, and max were reported.

[2] = Part II saline-volume-changed study, plasma pharmacokinetics; settings: single-dose infusion of 240 mg pyragrel diluted in 250 ml saline, n=4
Protocol: as §1, §2

[3] = Part III multiple-dose study, plasma pharmacokinetics; settings: for AUCINF / AUClast / Cl / Cmax / Tmax / Vz / t1/2: metabolite in plasma
Protocol: as §1, §2

[4] = metabolite in plasma after single 3 h i.v. infusion of pyragrel 30 mg, n=8
[5] = metabolite in plasma after single 3 h i.v. infusion of pyragrel 60 mg, n=8
[6] = metabolite in plasma after single 3 h i.v. infusion of pyragrel 120 mg, n=8
[7] = metabolite in plasma after single 3 h i.v. infusion of pyragrel 180 mg, n=4
[8] = metabolite in plasma after single 3 h i.v. infusion of pyragrel 240 mg, n=4
[9] = metabolite in plasma after single 3 h i.v. infusion of pyragrel 300 mg, n=4
[10] = Part III, multiple dose i.v. infusion of 180 mg pyragrel

Structure (SMILES): COc1cc(CCC(=O)O)ccc1OCc1nc(C)c(C)nc1C [BBS]
- Pharmacokinetic process over the dose range ([1]; 30–300 mg dose range): linear
- AUCINF [1, 4]: 1016.64 ± 206.08 ng·h/mL
- AUClast [1, 4]: 1006.02 ± 209.31 ng·h/mL
- Cl [1, 4]: 30.60 ± 6.23 L/h
- Cmax [1, 4]: 216.34 ± 48.23 ng/mL
- Tmax [1, 4]: 3.22 ± 0.36 h
- Vz [1, 4]: 252.46 ± 113.75 L
- t1/2 [1, 4]: 5.90 ± 2.84 h
- AUCINF [1, 5]: 1815.58 ± 430.74 ng·h/mL
- AUClast [1, 5]: 1802.57 ± 421.18 ng·h/mL
- Cl [1, 5]: 34.63 ± 7.86 L/h
- Cmax [1, 5]: 389.37 ± 90.87 ng/mL
- Tmax [1, 5]: 3.25 ± 0.13 h
- Vz [1, 5]: 377.35 ± 68.16 L
- t1/2 [1, 5]: 7.94 ± 2.48 h
- AUCINF [1, 6]: 3566.52 ± 1518.01 ng·h/mL
- AUClast [1, 6]: 3553.23 ± 1512.83 ng·h/mL
- Cl [1, 6]: 37.91 ± 12.00 L/h
- Cmax [1, 6]: 753.36 ± 287.7 ng/mL
- Tmax [1, 6]: 3.31 ± 0.18 h
- Vz [1, 6]: 369.08 ± 168.49 L
- t1/2 [1, 6]: 6.89 ± 2.29 h
- AUCINF [1, 7]: 6563.91 ± 1179.31 ng·h/mL
- AUClast [1, 7]: 6542.7 ± 1174.8 ng·h/mL
- Cl [1, 7]: 28.22 ± 5.92 L/h
- Cmax [1, 7]: 1490.69 ± 358.43 ng/mL
- Tmax [1, 7]: 3.31 ± 0.24 h
- Vz [1, 7]: 301.81 ± 76.25 L
- t1/2 [1, 7]: 7.41 ± 0.97 h
- AUCINF [1, 8]: 8910.06 ± 3388.83 ng·h/mL
- AUClast [1, 8]: 8843.82 ± 3366.35 ng·h/mL
- Cl [1, 8]: 29.59 ± 9.55 L/h
- Cmax [1, 8]: 1878.22 ± 681.05 ng/mL
- Tmax [1, 8]: 3.25 ± 0.20 h
- Vz [1, 8]: 374.58 ± 119.99 L
- t1/2 [1, 8]: 8.81 ± 0.46 h
- AUCINF [1, 9]: 10549.78 ± 3061.74 ng·h/mL
- AUClast [1, 9]: 10466.78 ± 3028.35 ng·h/mL
- Cl [1, 9]: 30.84 ± 11.23 L/h
- Cmax [1, 9]: 2139.28 ± 589.06 ng/mL
- Tmax [1, 9]: 3.19 ± 0.13 h
- Vz [1, 9]: 345.29 ± 120.76 L
- t1/2 [1, 9]: 7.85 ± 1.92 h
- AUCINF [2]: 10315.00 ± 5472.87 ng·h/mL
- AUClast [2]: 10085.90 ± 5357.26 ng·h/mL
- Cl [2]: 36.06 ± 33.86 L/h
- Cmax [2]: 2066.22 ± 977.65 ng/mL
- MRTINF [2]: 4.13 ± 0.70 h
- MRTlast [2]: 3.50 ± 0.74 h
- Tmax [2]: 3.19 ± 0.24 h
- Vz [2]: 372.66 ± 424.67 L
- t1/2 [2]: 6.31 ± 1.38 h
- λz [2]: 0.11 ± 0.03 h⁻¹
- AUCINF [3, 10]: 7027.46 ± 3017.92 ng·h/mL
- AUClast [3, 10]: 6797.36 ± 2919.19 ng·h/mL
- Cl [3, 10]: 35.50 ± 18.33 L/h
- Cmax [3, 10]: 1356.91 ± 564.13 ng/mL
- Tmax [3, 10]: 3.19 ± 0.11 h
- Vz [3, 10]: 152.37 ± 94.36 L
- t1/2 [3, 10]: 6.07 ± 2.11 h
- R ([3]; Part III, metabolite, multiple vs single dose of 180 mg pyragrel, footnote d not given): 1.27 ± 0.13
- AA ([3]; Part III, metabolite, multiple vs single dose of 180 mg pyragrel, footnote e not given): 1.13 ± 0.24
- AUCINF ([3]; single dose of 180 mg pyragrel): 6145.79 ± 2339.86 ng·h/mL
- AUClast ([3]; single dose of 180 mg pyragrel): 6022.22 ± 2291.72 ng·h/mL
- Cl ([3]; single dose of 180 mg pyragrel): 36.52 ± 23.08 L/h
- Cmax ([3]; single dose of 180 mg pyragrel): 1324.23 ± 447.99 ng/mL
- Tmax ([3]; single dose of 180 mg pyragrel): 3.25 ± 0.15 h
- Vz ([3]; single dose of 180 mg pyragrel): 285.61 ± 221.29 L
- t1/2 ([3]; single dose of 180 mg pyragrel): 5.31 ± 1.42 h
- Accumulation on repeated dose, in words ([3]; repeated dose of pyragrel 180 mg for 6 days (once- or twice-daily dosing)): no accumulation
